# US11432549B2, “Carbamoyl triazolinone based herbicide combinations and method of use” (Arysta LifeScience Corporation, priority 2009, dated 2022)
# Read-outs that look alike come from different tables or passages of the source.
# Tests used:
# [1] = system: Green Foxtail; experiment: Ex 5/7 greenhouse spray, bleaching/injury ratings; type: in vivo; conditions: Green Foxtail
# Protocol: (§1) Containers were watered as needed based on species and water usage. The greenhouse was heated to keep temperatures above 50° F. (10° C.) and ventilated as needed to keep temperatures below 100° F. (38° C.). Typical daytime temperatures in the greenhouse were 80-90° F. (27-32° C.) and nighttime temperatures were between 50-60° F. (10-16° C.). The soil employed was Promix BX potting soil. Overall moisture conditions were normal and the closest weather station was on-site. Conditions and equipment employed in this Example are tabulated below in Tables 5-1 and 5-2.
# (§2) All containers were moved outdoors from the greenhouse and arranged in blocks by treatment for the herbicide applications. A single spray application was applied to each block containing four repetitions of each species for each treatment. Plants were then immediately returned to the greenhouse and irrigated with approximately ¼″ water 1-3 hrs after treatment with a hose end sprayer. Only the Poa plants were trimmed with scissors two days prior to treatment at a height of approximately 3 inches.
# (§3) Referring to FIGS. 2A-B, 3A-C, 4A-C, and 5A-D, all ratings of injury or bleaching are based on a scale from 1 to 9. […] Any bleaching measurement 4 and above was considered unacceptable for desirable turf species. In injury measurements, 1 indicates no injury while 9 indicates a dead plant. Any injury measurement 4 and above was considered unacceptable for desirable turf species). Density correlates with percent cover where 1 indicates no grass while 9 indicates a full pot.
# (§4) Replications employed include 4, Untreated treatments: 1, Design: Randomized Complete Block, Treatment units: US standard, Treated plot size Width: 4 feet, Treated plot size Length: 4 feet, Application volume: 50 gal/ac, Mix size: 0.5562 liters, Mix overage: 100%, Format definitions: G-All7.DEF, G-All7.FRM.
# (§5) In evaluating synergism, the data from Example 5 above were converted to % of control. This was done based on the data provided on a 1-9 scale detailed in Example 5. Expected values were computed from the % of control data by the formula for expected control=[…], where A is the % of control value for herbicide A alone and B is the % of control value for herbicide B alone.
# [2] = system: Poa annua; experiment: Ex 5/7 greenhouse spray, bleaching/injury ratings; type: in vivo; conditions: Poa
# Protocol: as §1, §2
# (§6) Transplanted tillering Kentucky Bluegrass was 5 to 6 months old, transplanted Poa annua was 5 to 6 months old. Tall fescue was seeded into the crabgrass pots. St. Augustine plants (Floratam and Saphire) were shipped from Port St. Lucie, Fla. Only two replicates of Saphire St. Augustine grass were used due to plant availability.
# as §3, §4, §5
# [3] = system: Crabgrass sp.; experiment: Ex 5/7 greenhouse spray, bleaching/injury/density ratings; type: in vivo; conditions: Crabgrass
# Protocol: as §1, §2, §6, §3, §4, §5
# [4] = system: St. Augustine-Floratum; conditions: St. Augustine Floratam
# Protocol: as §1, §2, §6, §3, §4, §5
# [5] = system: St. Augustine-Sapphire; conditions: in vivo
# Protocol: as §1, §2, §6, §3, §4, §5
# [6] = system: Digitaria ciliaris; experiment: Ex 1 pot test, visual % damage; type: in vivo
# [7] = Days After First/Last Applic. 41 41, Trt-Eval Interval 31 DA-A
compound,measurement,setting,value
CC(C)c1nn(C(=O)NC(C)(C)C)c(=O)n1N [2 Amicarbazone],Injury,[1]; 6 DA-A,1.5 f
same,Injury,[1]; 7 DA-A,1.5 c
same,Bleaching,[1]; 10 DA-A,1.0 c
same,Bleaching,[1]; 14 DA-A,1
same,Injury,[1]; 14 DA-A,1.3
same,Bleaching,[1]; 16 DA-A,1
same,Injury,[1]; 16 DA-A,1.8
same,Bleaching,[1]; 20 DA-A,1.3 c
same,Injury,[1]; 20 DA-A,1.8
same,Injury,[1]; 24 DA-A,2
same,Bleaching,[1]; 31 DA-A,3.0 a
same,Injury,[1]; 31 DA-A,2.8
same,Bleaching,[2]; 6 DA-A,1.0 a
same,Bleaching,[2]; 7 DA-A,1.0 a
same,Injury,[2]; 10 DA-A,1.0 e
same,Bleaching,[2]; 14 DA-A,1.0 b
same,Injury,[2]; 14 DA-A,1.8
same,Bleaching,[2]; 16 DA-A,1.0 b
same,Injury,[2]; 16 DA-A,2.5
same,Bleaching,[2]; 20 DA-A,1.0 a
same,Injury,[2]; 20 DA-A,2.5
same,Injury,[2]; 24 DA-A,2.5 cd
same,Injury,[2]; 31 DA-A,3.3 c
same,Injury,[2]; [7],3.8 c
same,Bleaching,[3]; 6 DA-A,1.3 f
same,Injury,[3]; 6 DA-A,1.5
same,Bleaching,[3]; 7 DA-A,1.0 c
same,Injury,[3]; 7 DA-A,1.0 e
same,Bleaching,[3]; 10 DA-A,1.0 c
same,Bleaching,[3]; 14 DA-A,1.0 c
same,Injury,[3]; 14 DA-A,1
same,Bleaching,[3]; 16 DA-A,1.3 c
same,Injury,[3]; 16 DA-A,1.3
same,Bleaching,[3]; 20 DA-A,1.3
same,Injury,[3]; 20 DA-A,1.3 c
same,% Crab Cvr,[3]; 24 DA-A,7.8 a %
same,Injury,[3]; 24 DA-A,1.5 c
same,% Crab Cvr,[3]; 31 DA-A,8.3 a %
same,Bleaching,[3]; 31 DA-A,1.0 b
same,% Crab Cvr,[3]; 41 DA-A,9.0 a %
same,Bleaching,[3]; 41 DA-A,1.0 a
same,Bleaching,[4]; 6 DA-A,1.0 a
same,Bleaching,[4]; 7 DA-A,1.0 c
same,Bleaching,[4]; 10 DA-A,1.0 c
same,Bleaching,[4]; 14 DA-A,1.0 c
same,Bleaching,[4]; 16 DA-A,1.0 e
same,Bleaching,[4]; 20 DA-A,1.0 b
same,Bleaching,[4]; 31 DA-A,1.0 c
same,Bleaching,[4]; [7],1.0 a
same,TurfQuality,[4]; [7],6.8 bc
same,TurfQuality,[5],7.0 a
CC(C)c1nn(C(=O)NC(C)(C)C)c(=O)n1N [3 Amicarbazone],Injury,[1]; 6 DA-A,3.8 de
same,Injury,[1]; 7 DA-A,3.5 b
same,Bleaching,[1]; 10 DA-A,1.0 c
same,Bleaching,[1]; 14 DA-A,1
same,Injury,[1]; 14 DA-A,2.5 f
same,Bleaching,[1]; 16 DA-A,1
same,Injury,[1]; 16 DA-A,2.8 cd
same,Bleaching,[1]; 20 DA-A,1.3 c
same,Injury,[1]; 20 DA-A,3.5 cd
same,Injury,[1]; 24 DA-A,3.8 c
same,Bleaching,[1]; 31 DA-A,3.3 a
same,Injury,[1]; 31 DA-A,5.3 bc
same,Bleaching,[2]; 6 DA-A,1.0 a
same,Bleaching,[2]; 7 DA-A,1.0 a
same,Injury,[2]; 10 DA-A,3.5 bc
same,Bleaching,[2]; 14 DA-A,1.8 b
same,Injury,[2]; 14 DA-A,4.8 b
same,Bleaching,[2]; 16 DA-A,2.0 ab
same,Injury,[2]; 16 DA-A,5.0 bc
same,Bleaching,[2]; 20 DA-A,2.0 a
same,Injury,[2]; 20 DA-A,5.5 c
same,Injury,[2]; 24 DA-A,5.3 b
same,Injury,[2]; 31 DA-A,7.0 ab
same,Injury,[2]; [7],7.5 ab
same,Bleaching,[3]; 6 DA-A,1.0 f
same,Injury,[3]; 6 DA-A,1
same,Bleaching,[3]; 7 DA-A,1.0 c
same,Injury,[3]; 7 DA-A,1.0 e
same,Bleaching,[3]; 10 DA-A,1.0 c
same,Bleaching,[3]; 14 DA-A,1.0 c
same,Injury,[3]; 14 DA-A,1
same,Bleaching,[3]; 16 DA-A,1.0 c
same,Injury,[3]; 16 DA-A,1.5
same,Bleaching,[3]; 20 DA-A,1
same,Injury,[3]; 20 DA-A,1.5 c
same,% Crab Cvr,[3]; 24 DA-A,6.3 b %
same,Injury,[3]; 24 DA-A,1.5 c
same,% Crab Cvr,[3]; 31 DA-A,6.3 b %
same,Bleaching,[3]; 31 DA-A,1.0 b
same,% Crab Cvr,[3]; 41 DA-A,6.8 b %
same,Bleaching,[3]; 41 DA-A,1.0 a
same,Bleaching,[4]; 6 DA-A,1.0 a
same,Bleaching,[4]; 7 DA-A,1.0 c
same,Bleaching,[4]; 10 DA-A,1.0 c
same,Bleaching,[4]; 14 DA-A,1.0 c
same,Bleaching,[4]; 16 DA-A,1.3 e
same,Bleaching,[4]; 20 DA-A,1.3 b
same,Bleaching,[4]; 31 DA-A,1.0 c
same,Bleaching,[4]; [7],1.0 a
same,TurfQuality,[4]; [7],7.3 ab
same,TurfQuality,[5],7.5 a
"CCc1cccc(C)c1N(COC(C)C)C(=O)CCl [Propisochlor, 2-chloro-N-(2-ethyl-6-methylphenyl)-N-[(1-methylethoxy)methyl]acetamide]",weeding effect index,"[6]; 5 DAT, all tested dose rate, one-leaf stage",less than 50%
same,percentage control,"[6]; single application 50 g/ha, 5 DAT",28%
same,percentage control,"[6]; single application 50 g/ha, 8 DAT",70%
same,percentage control,"[6]; single application 50 g/ha, 14 DAT",76%
same,percentage control,"[6]; single application 50 g/ha, 21 DAT",88%
same,percentage control,"[6]; single application 50 g/ha, 28 DAT",82%
same,percentage control,"[6]; single application 100 g/ha, 5 DAT",42%
same,percentage control,"[6]; single application 100 g/ha, 8 DAT",78%
same,percentage control,"[6]; single application 100 g/ha, 14 DAT",86%
same,percentage control,"[6]; single application 100 g/ha, 21 DAT",94%
same,percentage control,"[6]; single application 100 g/ha, 28 DAT",92%
same,percentage control,"[6]; single application 200 g/ha, 5 DAT",44%
same,percentage control,"[6]; single application 200 g/ha, 8 DAT",80%
same,percentage control,"[6]; single application 200 g/ha, 14 DAT",90%
same,percentage control,"[6]; single application 200 g/ha, 21 DAT",98%
same,percentage control,"[6]; single application 200 g/ha, 28 DAT",98%
